Test results reported in US20210038607A1, “OXADIAZOLYLTHIOPHENE DERIVATIVES USEFUL AS HISTONE DEACETYLASE INHIBITORS” (Karus Therapeutics Limited, priority 2018, published 2021).

Experiments:
[1] = target: T1, Human HDAC1 (Homo sapiens, UniProt Q13547); assay: HDAC1 biochemical assay, AMC-labeled peptide substrate; details: read-out: HDAC Isoform IC50 (nM) 1
T1 construct: full length with C-terminal His-tag and C-terminal FLAG-tag; His (C); FLAG (C); host or cells: baculovirus expression system
Summary of the method: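 Baculovirus-expressed full-length human HDAC1 with His and FLAG tags, 0.3 ng/ul, incubated 1 h at 30° C with compound and 50 μM RHKK(Ac)AMC in Tris pH 8.0 buffer with BSA and 1% DMSO. Developer then releases AMC from deacetylated substrate; fluorescence read at 360/460 nm.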

[2] = target: T2, Human HDAC2 (Homo sapiens, UniProt Q92769); assay: HDAC2 biochemical assay, AMC-labeled peptide substrate; details: read-out: HDAC Isoform IC50 (nM) 2
T2 construct: full length with C-terminal GST-tag; GST (C); host or cells: baculovirus expression system
Summary of the method: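 Full-length human HDAC2 with C-terminal GST tag, baculovirus-expressed, at 0.07 ng/ul with 50 μM RHKK(Ac)AMC substrate in Tris-HCl pH8.0 buffer with BSA, 1% DMSO final. Incubated 1 hour at 30° C with compounds, then developer added; fluorescence read at 360/460 Ex/Em.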

[3] = target: T3, Human HDAC4 (Homo sapiens, UniProt P56524); assay: HDAC4 biochemical assay, class IIa-specific substrate; details: read-out: HDAC Isoform IC50 (nM) 4
T3 construct: amino acids 627-1085 with N-terminal GST tag; GST (N); host or cells: baculovirus expression system
Summary of the method: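 GST-tagged human HDAC4 (aa 627-1085, baculovirus) at 0.004 ng/ul was incubated 30 min at room temperature with 50 μM class IIa-specific substrate BOC-Lys(trifluoroacetyl)-AMC in Tris-HCl pH 8.0 buffer with BSA, 1% DMSO. Developer then released AMC, read at 360/460 nm.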

[4] = target: T4, Human HDAC5 (Homo sapiens, UniProt Q9UQL6); assay: HDAC5 biochemical assay, class IIa-specific substrate; details: read-out: HDAC Isoform IC50 (nM) 5
T4 construct: full length with C-terminal His tag, MW=51.1 kDa; His (C); host or cells: baculovirus expression system
Summary of the method: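 Full-length C-terminal His-tagged HDAC5 from baculovirus (0.05 ng/ul) incubated 30 min at room temperature with 50 μM Boc-Lys(trifluoroacetyl)-AMC and compound, Tris pH 8.0 buffer with BSA, 1% DMSO. Developer then releases AMC; fluorescence 360/460 nm.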

[5] = target: T5, Human HDAC10 (Homo sapiens, UniProt Q969S8); assay: HDAC10 biochemical assay, AMC-labeled peptide substrate; details: read-out: HDAC Isoform IC50 (nM) 10
T5 construct: Human HDAC10 (a.a. 1-481); GST (N); His (C); host or cells: baculovirus expression system
T5 sequence (Q969S8 1-481): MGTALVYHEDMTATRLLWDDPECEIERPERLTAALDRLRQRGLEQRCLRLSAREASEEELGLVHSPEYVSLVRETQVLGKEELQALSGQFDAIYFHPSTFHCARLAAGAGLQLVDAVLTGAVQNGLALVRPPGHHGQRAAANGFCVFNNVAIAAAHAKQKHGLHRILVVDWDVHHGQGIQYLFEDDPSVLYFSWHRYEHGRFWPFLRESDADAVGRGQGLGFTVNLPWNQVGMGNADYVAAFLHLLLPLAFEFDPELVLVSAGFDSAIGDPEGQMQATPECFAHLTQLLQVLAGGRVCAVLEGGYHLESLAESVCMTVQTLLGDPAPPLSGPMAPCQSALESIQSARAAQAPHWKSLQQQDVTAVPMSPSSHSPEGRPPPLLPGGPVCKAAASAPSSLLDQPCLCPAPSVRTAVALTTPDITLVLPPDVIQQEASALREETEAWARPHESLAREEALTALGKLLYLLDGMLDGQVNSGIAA
Summary of the method: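 Baculovirus-expressed GST/His-tagged human HDAC10 (aa 1-481), 12 ng/ul, incubated with 50 μM RHKK(Ac)AMC in Tris pH 8.0 buffer with BSA and 1% DMSO, 2 h at 30 °C. Developer then releases AMC, read at 360/460 nm.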

[6] = target: T6, Human HDAC11 (Homo sapiens, UniProt Q96DB2); assay: HDAC11 biochemical assay, class IIa-specific substrate; details: read-out: HDAC Isoform IC50 (nM) 11
T6 construct: Human HDAC11 (full length); His (N); host or cells: baculovirus expression system
T6 sequence (Q96DB2 1-347): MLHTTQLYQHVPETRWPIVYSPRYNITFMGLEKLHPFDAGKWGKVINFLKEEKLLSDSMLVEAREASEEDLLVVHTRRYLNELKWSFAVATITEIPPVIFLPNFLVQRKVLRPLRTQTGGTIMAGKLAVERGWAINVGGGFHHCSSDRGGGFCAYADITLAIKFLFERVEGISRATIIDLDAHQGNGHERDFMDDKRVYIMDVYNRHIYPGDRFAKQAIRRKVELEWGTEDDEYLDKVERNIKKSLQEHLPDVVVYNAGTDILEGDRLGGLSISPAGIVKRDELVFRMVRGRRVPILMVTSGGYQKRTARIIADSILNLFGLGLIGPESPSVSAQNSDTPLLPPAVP
Summary of the method: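 Full-length N-His human HDAC11 from baculovirus, 5 ng/μl, incubated with 50 μM Boc-Lys(trifluoroacetyl)-AMC for 30 min at 30 °C. Buffer: 50 mM Tris-HCl pH 8.0, 137 mM NaCl, 2.7 mM KCl, 1 mM MgCl2, 1 mg/mL BSA, 1% DMSO. Developer releases AMC; fluorescence read at 360/460 nm.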

T2 sequence (Q92769 whole entry, canonical isoform): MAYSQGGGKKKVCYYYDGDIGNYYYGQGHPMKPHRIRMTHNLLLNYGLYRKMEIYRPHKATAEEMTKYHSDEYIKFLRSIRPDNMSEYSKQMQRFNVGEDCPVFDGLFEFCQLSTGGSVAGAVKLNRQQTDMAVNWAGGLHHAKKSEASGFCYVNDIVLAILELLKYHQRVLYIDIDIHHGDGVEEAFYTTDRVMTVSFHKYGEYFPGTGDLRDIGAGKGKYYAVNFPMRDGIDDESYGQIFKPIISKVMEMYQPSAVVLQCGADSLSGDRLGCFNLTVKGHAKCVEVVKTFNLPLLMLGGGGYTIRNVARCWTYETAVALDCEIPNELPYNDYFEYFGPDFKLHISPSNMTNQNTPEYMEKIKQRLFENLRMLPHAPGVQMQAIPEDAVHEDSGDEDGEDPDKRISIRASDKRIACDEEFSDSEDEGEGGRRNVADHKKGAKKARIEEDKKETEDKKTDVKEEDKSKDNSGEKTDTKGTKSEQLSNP
T3 sequence (P56524 627-1084 limits assumed): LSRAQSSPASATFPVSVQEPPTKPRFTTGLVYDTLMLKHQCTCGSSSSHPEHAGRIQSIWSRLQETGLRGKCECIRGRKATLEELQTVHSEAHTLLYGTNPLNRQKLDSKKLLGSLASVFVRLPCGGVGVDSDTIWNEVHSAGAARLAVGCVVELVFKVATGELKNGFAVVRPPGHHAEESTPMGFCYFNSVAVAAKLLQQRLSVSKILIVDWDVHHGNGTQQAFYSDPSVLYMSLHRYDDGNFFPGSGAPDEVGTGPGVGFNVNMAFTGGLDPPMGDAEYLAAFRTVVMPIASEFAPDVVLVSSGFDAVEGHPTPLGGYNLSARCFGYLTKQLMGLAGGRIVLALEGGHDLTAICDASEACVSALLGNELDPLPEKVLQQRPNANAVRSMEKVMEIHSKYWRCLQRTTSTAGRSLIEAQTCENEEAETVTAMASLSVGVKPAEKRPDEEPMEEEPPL
T1 sequence (Q13547 whole entry, canonical isoform): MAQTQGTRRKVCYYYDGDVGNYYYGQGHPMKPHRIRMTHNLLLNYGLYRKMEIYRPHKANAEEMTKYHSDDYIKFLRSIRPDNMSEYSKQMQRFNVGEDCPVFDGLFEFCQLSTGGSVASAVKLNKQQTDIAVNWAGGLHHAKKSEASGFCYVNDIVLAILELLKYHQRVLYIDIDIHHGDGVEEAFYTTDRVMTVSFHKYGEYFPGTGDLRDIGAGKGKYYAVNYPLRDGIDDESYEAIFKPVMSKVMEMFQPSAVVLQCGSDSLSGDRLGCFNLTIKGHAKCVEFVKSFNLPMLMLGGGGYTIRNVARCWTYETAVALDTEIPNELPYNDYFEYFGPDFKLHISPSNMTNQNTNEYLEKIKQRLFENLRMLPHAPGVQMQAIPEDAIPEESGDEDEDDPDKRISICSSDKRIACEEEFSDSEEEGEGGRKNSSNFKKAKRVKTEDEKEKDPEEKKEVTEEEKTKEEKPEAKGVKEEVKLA
T4 sequence (Q9UQL6 656-1122 limits assumed): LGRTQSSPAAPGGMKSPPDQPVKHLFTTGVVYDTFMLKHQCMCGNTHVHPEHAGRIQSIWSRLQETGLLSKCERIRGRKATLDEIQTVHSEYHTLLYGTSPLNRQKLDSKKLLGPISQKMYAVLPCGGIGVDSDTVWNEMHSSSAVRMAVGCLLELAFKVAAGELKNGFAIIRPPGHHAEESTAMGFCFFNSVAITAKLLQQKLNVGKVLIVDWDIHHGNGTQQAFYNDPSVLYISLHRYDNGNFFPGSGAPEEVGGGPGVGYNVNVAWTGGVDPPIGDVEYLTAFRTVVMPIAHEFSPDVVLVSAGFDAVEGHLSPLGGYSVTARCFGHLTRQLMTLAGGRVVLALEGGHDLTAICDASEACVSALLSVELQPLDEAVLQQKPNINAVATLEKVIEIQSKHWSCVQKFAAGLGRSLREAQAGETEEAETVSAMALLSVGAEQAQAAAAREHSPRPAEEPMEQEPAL

O=C(c1cncc(N(Cc2ccc(-c3noc(C(F)(F)F)n3)s2)c2cnccn2)c1)N1CCOCC1 [Example GR, N-[5-(Morpholine-4-carbonyl)pyridin-3-yl]-N-({5-[5-(trifluoromethyl)-1,2,4-oxadiazol-3-yl]thiophen-2-yl}methyl)pyrazin-2-amine]
IC50 [1]: > 10000 nM
IC50 [2]: > 10000 nM
IC50 [3]: ≤ 1000 nM
IC50 [4]: ≤ 500 nM
IC50 [5]: > 10000 nM
IC50 [6]: > 10000 nM

NC(=O)c1ccc(N(Cc2ccc(-c3noc(C(F)(F)F)n3)s2)c2cnccn2)nn1 [Example DQ, 6-[(Pyrazin-2-yl)({5-[5-(trifluoromethyl)-1,2,4-oxadiazol-3-yl]thiophen-2-yl}methyl)amino]pyridazine-3-carboxamide]
IC50 [1]: ≤ 10000 nM
IC50 [2]: > 10000 nM
IC50 [3]: ≤ 500 nM
IC50 [4]: ≤ 500 nM
IC50 [5]: > 10000 nM
IC50 [6]: > 10000 nM

O=C(O)c1cnnc(N(Cc2ccc(-c3noc(C(F)(F)F)n3)s2)c2cc(C(F)(F)F)cnn2)c1 [Example ES, 6-[({5-[5-(Trifluoromethyl)-1,2,4-oxadiazol-3-yl]thiophen-2-yl}methyl)[5-(trifluoromethyl)pyridazin-3-yl]amino]pyridazine-4-carboxylicacid]
IC50 [1]: > 10000 nM
IC50 [2]: > 10000 nM
IC50 [3]: ≤ 10000 nM
IC50 [4]: ≤ 10000 nM
IC50 [5]: > 10000 nM
IC50 [6]: > 10000 nM

FC(F)(F)c1nc(-c2ccc(CN(c3ccccn3)c3ccccn3)s2)no1 [Example U, N-(Pyridin-2-yl)-N-({5-[5-(trifluoromethyl)-1,2,4-oxadiazol-3-yl]thiophen-2-yl}methyl)pyridin-2-amine]
IC50 [1]: > 10000 nM
IC50 [2]: > 10000 nM
IC50 [3]: ≤ 10000 nM
IC50 [4]: ≤ 10000 nM
IC50 [5]: > 10000 nM
IC50 [6]: > 10000 nM

O=C(c1cnnc(N(Cc2ccc(-c3noc(C(F)(F)F)n3)s2)c2cnccn2)c1)N1CC2CCC(C1)O2 [Example GA, 5-{8-Oxa-3-azabicyclo[3.2.1]octane-3-carbonyl}-N-(pyrazin-2-yl)-N-({5-[5-(trifluoromethyl)-1,2,4-oxadiazol-3-yl]thiophen-2-yl}methyl)pyridazin-3-amine]
IC50 [1]: > 10000 nM
IC50 [2]: > 10000 nM
IC50 [3]: ≤ 10000 nM
IC50 [4]: ≤ 1000 nM
IC50 [5]: > 10000 nM
IC50 [6]: > 10000 nM

FC(F)(F)c1nc(-c2ccc(CN(c3cnccn3)c3cc(N4CCCC4)cnn3)s2)no1 [Example FQ, N-(Pyrazin-2-yl)-5-(pyrrolidin-1-yl)-N-({5-[5-(trifluoromethyl)-1,2,4-oxadiazol-3-yl]thiophen-2-yl}methyl)pyridazin-3-amine]
IC50 [1]: > 10000 nM
IC50 [2]: > 10000 nM
IC50 [3]: ≤ 10000 nM
IC50 [4]: ≤ 1000 nM
IC50 [5]: > 10000 nM
IC50 [6]: > 10000 nM

O=C(c1ccc(N(Cc2ccc(-c3noc(C(F)(F)F)n3)s2)c2cnccn2)nn1)N1C[C@@H]2C[C@H]1CO2 [Example FE, 6-[(1S,4S)-2-Oxa-5-azabicyclo[2.2.1]heptane-5-carbonyl]-N-(pyrazin-2-yl)-N-({5-[5-(trifluoromethyl)-1,2,4-oxadiazol-3-yl]thiophen-2-yl}methyl)pyridazin-3-amine]
IC50 [1]: > 10000 nM
IC50 [2]: > 10000 nM
IC50 [3]: ≤ 500 nM
IC50 [4]: ≤ 500 nM
IC50 [5]: > 10000 nM
IC50 [6]: > 10000 nM

FC(F)(F)c1nc(-c2ccc(CN(c3cnccn3)c3ncccn3)s2)no1 [Example AS, N-(Pyrimidin-2-yl)-N-({5-[5-(trifluoromethyl)-1,2,4-oxadiazol-3-yl]thiophen-2-yl}methyl)pyrazin-2-amine]
IC50 [1]: > 10000 nM
IC50 [2]: > 10000 nM
IC50 [3]: ≤ 10000 nM
IC50 [4]: ≤ 1000 nM
IC50 [5]: > 10000 nM
IC50 [6]: > 10000 nM

CN(C)C1CN(C(=O)c2cnnc(N(Cc3ccc(-c4noc(C(F)(F)F)n4)s3)c3cnccn3)c2)C1 [Example FX, 5-[3-(Dimethylamino)azetidine-1-carbonyl]-N-(pyrazin-2-yl)-N-({5-[5-(trifluoromethyl)-1,2,4-oxadiazol-3-yl]thiophen-2-yl}methyl)pyridazin-3-amine]
IC50 [1]: > 10000 nM
IC50 [2]: > 10000 nM
IC50 [3]: ≤ 10000 nM
IC50 [4]: ≤ 10000 nM
IC50 [5]: > 10000 nM
IC50 [6]: > 10000 nM

O=C(c1cnnc(N(Cc2ccc(-c3noc(C(F)(F)F)n3)s2)c2cnccn2)c1)N1CCCC1 [Example EA, N-(Pyrazin-2-yl)-5-(pyrrolidine-1-carbonyl)-N-({5-[5-(trifluoromethyl)-1,2,4-oxadiazol-3-yl]thiophen-2-yl}methyl)pyridazin-3-amine]
IC50 [1]: > 10000 nM
IC50 [2]: > 10000 nM
IC50 [3]: ≤ 10000 nM
IC50 [4]: ≤ 1000 nM
IC50 [5]: > 10000 nM
IC50 [6]: > 10000 nM

COc1nccnc1N(Cc1ccc(-c2noc(C(F)(F)F)n2)s1)c1cnccn1 [Example BF, 3-Methoxy-N-(pyrazin-2-yl)-N-({5-[5-(trifluoromethyl)-1,2,4-oxadiazol-3-yl]thiophen-2-yl}methyl)pyrazin-2-amine]
IC50 [1]: > 10000 nM
IC50 [2]: > 10000 nM
IC50 [3]: ≤ 10000 nM
IC50 [4]: ≤ 10000 nM
IC50 [5]: > 10000 nM
IC50 [6]: > 10000 nM

COc1cnc(N(Cc2ccc(-c3noc(C(F)(F)F)n3)s2)c2cnccn2)cn1 [Example BI, 5-Methoxy-N-(pyrazin-2-yl)-N-({5-[5-(trifluoromethyl)-1,2,4-oxadiazol-3-yl]thiophen-2-yl}methyl)pyrazin-2-amine]
IC50 [1]: > 10000 nM
IC50 [2]: > 10000 nM
IC50 [3]: ≤ 10000 nM
IC50 [4]: ≤ 10000 nM
IC50 [5]: > 10000 nM
IC50 [6]: > 10000 nM

FC(F)(F)c1nc(-c2ccc(CN(c3cnccn3)c3cc(CN4CCCC4)ccn3)s2)no1 [Example GG, N-{4-[(Pyrrolidin-1-yl)methyl]pyridin-2-yl}-N-({5-[5-(trifluoromethyl)-1,2,4-oxadiazol-3-yl]thiophen-2-yl}methyl)pyrazin-2-amine]
IC50 [1]: > 10000 nM
IC50 [2]: > 10000 nM
IC50 [3]: ≤ 1000 nM
IC50 [4]: ≤ 1000 nM
IC50 [5]: > 10000 nM
IC50 [6]: > 10000 nM

O=C(c1ccc(N(Cc2ccc(-c3noc(C(F)(F)F)n3)s2)c2cnccn2)nn1)N1CCCC1 [Example FI, N-(Pyrazin-2-yl)-6-(pyrrolidine-1-carbonyl)-N-({5-[5-(trifluoromethyl)-1,2,4-oxadiazol-3-yl]thiophen-2-yl}methyl)pyridazin-3-amine]
IC50 [1]: ≤ 10000 nM
IC50 [2]: > 10000 nM
IC50 [3]: ≤ 500 nM
IC50 [4]: ≤ 500 nM
IC50 [5]: > 10000 nM
IC50 [6]: > 10000 nM
